Where a SMILES comes first, the peptide text is derived from it. Bridges are numbered along the chain shown (N, C = ends). Where no end group is shown, it is not given here.
Assays:
Assay type in all cases: cell-based, dengue virus
[1] = system: DV3; conditions: for degree of reduction of the number of viral plaques, DV3: peptides 0.1 mg/ml, Vero cells
Excerpt: (§1) DIII has one of the most variable regions of the exposed surface of protein E. In fact, one of the antigenic characteristics of this domain is that the antibodies obtained against this region are predominantly serotype-specific (Roehrig J T, Bolin R A, Kelly R G (1998) Monoclonal antibody mapping of the envelope glycoprotein of the dengue 2 virus, Jamaica Virology 246:317-28). However, during the inhibition assay with different DV serotypes, the peptides display a wide-spectrum inhibitory activity, efficiently inhibiting the infection of strains of the homologous, as well as of the heterologous serotypes (table 3). It is important to notice that at the assayed concentration (0.1 mg/ml) all the peptides in all the conditions, with the exception of peptide HIII4CL for DV3, produced higher than 50% inhibition levels.

[2] = system: DV4; conditions: peptides 0.1 mg/ml; Vero cells
Excerpt: as §1

[3] = system: DV2; conditions: peptides 0.1 mg/ml; Vero cells
Procedure: (§2) FIG. 17. Inhibition of the infection of Vero cells with DV1 and DV2. (A) Six-well plates with a monolayer at approximately 90% confluence were incubated for 30 min. at 37° C. with dilutions of the peptides in MEM medium. A dilution of either DV1 strain West Pac 74 or DV2 strain S16803 was then added, calculated so as to obtain an average of 100 lytic plaques per well, and the plates were incubated for 30 min. at 37° C. with the virus/peptide mixture. After the incubation the cells were washed twice, received the addition of MEM medium supplemented with non-essential amino acids, 1% fetal calf serum, 1% CMC, and finally were incubated for 5 days at 37° C. under a CO2 atmosphere. (B) Inhibitory effect of the peptides at 100 μMol/L. NRpep: Non-related peptide. Data on the sequence of the peptides 3H5pept (SEQ ID. 27), pepDIII-1 (SEQ ID. 28), HIII2CL (SEQ ID. 5) and HIII3CL (SEQ ID. 7), as well as on the region they span on DIII from DV, can be obtained from FIG. 11. The calculation of the inhibition percentages is described in Materials and Methods. (C) Inhibition of DV2 infection by using varying peptide concentrations. The viral plaques were visualized by staining with Naphtol Blue Black. Cell control: Untreated cells. Virus control: Cells incubated with the virus, but without peptide.
as §1

[4] = system: DV1; conditions: peptides 0.1 mg/ml; Vero cells
Procedure: as §2, §1

Compound | degree of reduction of the number of viral plaques, DV3 [1] | degree of reduction of the number of viral plaques, DV4 [2] | degree of reduction of the number of viral plaques, DV2 [3] | degree of reduction of the number of viral plaques, DV1 [4] | inhibition level, DV3 ([1]; 0.1 mg/ml)
HDIII1CL: cyclic synthetic peptide based on the FG beta hairpin of DIII of protein E from DV1, SEQ ID. 6 (CSYIVVGAGEKALKLSWC-NH2; disulfide 1-18 (inferred)) | + (50% or higher decrease) | + (50% or higher decrease) | + (50% or higher decrease) | + (50% or higher decrease) | 
CC[C@H](C)[C@@H]1NC(=O)[C@H](Cc2ccc(O)cc2)NC(=O)[C@H](CO)NC(=O)[C@@H](N)CSSC[C@@H](C(N)=O)NC(=O)[C@H](Cc2c[nH]c3ccccc23)NC(=O)[C@H](Cc2c[nH]cn2)NC(=O)[C@H](CC(C)C)NC(=O)[C@H]([C@@H](C)O)NC(=O)[C@H](CC(C)C)NC(=O)[C@H](C)NC(=O)[C@H](CO)NC(=O)[C@H](CC(N)=O)NC(=O)CNC(=O)[C@H](C(C)C)NC(=O)CNC(=O)[C@H]([C@@H](C)CC)NC(=O)[C@H](C(C)C)NC1=O [HDIII4CL] (H-CSYIVIGVGNSALTLHWC-NH2; disulfide 1-18; N-terminus assumed) | +/− (10-50% decrease in the number of plaques) | + (50% or higher decrease) | + (50% or higher decrease) | + (50% or higher decrease) | ≤ 50%

Source: US8420311B2, “Method to block the infection by flaviviruses, molecules and uses” (Centro de Ingenieria Genetica y Biotecnologia, priority 2006, dated 2013)
